Holding throughout (test): Eurofins kinase panel
Holding throughout (assay type): biochemical
What all share (details): read-out: Inhibition rate (%)

In test [1] the target is T1, PKG1α(h) (Homo sapiens, UniProt Q13976).
T1 construct: purchased Eurofins (KinaseProfiler)
T1 sequence (Q13976 1-671): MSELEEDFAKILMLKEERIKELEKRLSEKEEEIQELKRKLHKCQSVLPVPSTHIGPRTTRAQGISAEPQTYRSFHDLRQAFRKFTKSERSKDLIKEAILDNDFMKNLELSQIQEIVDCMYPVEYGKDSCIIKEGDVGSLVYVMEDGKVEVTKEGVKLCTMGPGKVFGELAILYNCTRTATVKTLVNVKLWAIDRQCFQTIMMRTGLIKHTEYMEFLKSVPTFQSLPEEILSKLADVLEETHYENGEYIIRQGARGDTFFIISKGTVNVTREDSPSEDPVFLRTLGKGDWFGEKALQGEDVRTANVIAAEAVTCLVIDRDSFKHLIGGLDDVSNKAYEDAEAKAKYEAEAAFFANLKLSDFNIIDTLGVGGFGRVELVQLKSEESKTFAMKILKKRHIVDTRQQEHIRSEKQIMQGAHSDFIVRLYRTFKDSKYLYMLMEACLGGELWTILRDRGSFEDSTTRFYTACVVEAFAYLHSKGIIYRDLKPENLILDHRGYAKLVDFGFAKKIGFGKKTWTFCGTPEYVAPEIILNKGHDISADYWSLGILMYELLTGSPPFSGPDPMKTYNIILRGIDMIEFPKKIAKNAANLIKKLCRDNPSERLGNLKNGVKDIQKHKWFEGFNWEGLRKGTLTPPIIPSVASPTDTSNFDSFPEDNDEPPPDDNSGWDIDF

In test [2] the target is T2, Pim-3(h) (Homo sapiens, UniProt Q86V86).
T2 construct: purchased Eurofins (KinaseProfiler)

Test [3] deals with T3, MEKK2(h) (Homo sapiens, UniProt Q9Y2U5).
T3 construct: purchased Eurofins (KinaseProfiler)
T3 sequence (Q9Y2U5 1-619): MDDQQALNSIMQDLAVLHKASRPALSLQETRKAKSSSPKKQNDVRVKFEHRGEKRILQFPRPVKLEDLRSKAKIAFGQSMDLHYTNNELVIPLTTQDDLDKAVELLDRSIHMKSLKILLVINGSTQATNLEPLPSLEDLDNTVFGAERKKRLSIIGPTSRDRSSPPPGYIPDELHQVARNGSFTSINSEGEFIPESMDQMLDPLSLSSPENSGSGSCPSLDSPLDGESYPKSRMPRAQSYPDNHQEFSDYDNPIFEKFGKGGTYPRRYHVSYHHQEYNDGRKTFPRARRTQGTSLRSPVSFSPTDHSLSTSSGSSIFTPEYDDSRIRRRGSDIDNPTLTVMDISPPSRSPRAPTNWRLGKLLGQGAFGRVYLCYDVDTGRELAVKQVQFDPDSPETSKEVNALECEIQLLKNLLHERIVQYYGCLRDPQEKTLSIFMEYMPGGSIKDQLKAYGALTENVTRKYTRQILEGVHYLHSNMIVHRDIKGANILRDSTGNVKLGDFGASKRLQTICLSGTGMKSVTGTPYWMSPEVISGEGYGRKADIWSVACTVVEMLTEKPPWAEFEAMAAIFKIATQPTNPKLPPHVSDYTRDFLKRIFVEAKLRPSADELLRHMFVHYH

The target of test [4] is T4, DYRK2(h) (Homo sapiens, UniProt Q92630).
T4 construct: purchased Eurofins (KinaseProfiler)
T4 sequence (Q92630 1-601): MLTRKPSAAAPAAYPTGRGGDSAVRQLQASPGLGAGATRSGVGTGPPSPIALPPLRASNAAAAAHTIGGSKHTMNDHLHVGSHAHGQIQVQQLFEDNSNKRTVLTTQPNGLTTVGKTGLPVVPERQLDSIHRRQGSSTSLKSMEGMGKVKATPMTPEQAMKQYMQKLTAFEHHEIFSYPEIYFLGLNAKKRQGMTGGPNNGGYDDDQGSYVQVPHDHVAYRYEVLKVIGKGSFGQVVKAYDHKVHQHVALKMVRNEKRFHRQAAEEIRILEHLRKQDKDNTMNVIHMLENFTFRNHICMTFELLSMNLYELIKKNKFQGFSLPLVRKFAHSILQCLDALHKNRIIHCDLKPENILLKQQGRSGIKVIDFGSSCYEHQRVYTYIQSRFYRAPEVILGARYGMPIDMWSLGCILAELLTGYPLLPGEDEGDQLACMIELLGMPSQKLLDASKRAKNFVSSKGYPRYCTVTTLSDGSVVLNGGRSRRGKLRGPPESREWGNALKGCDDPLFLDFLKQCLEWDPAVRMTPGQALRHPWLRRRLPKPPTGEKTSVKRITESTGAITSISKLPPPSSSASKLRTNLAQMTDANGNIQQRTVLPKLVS

Test [5] addresses T5, mTOR/FKBP12(h) (Homo sapiens, UniProt P42345).
T5 construct: purchased Eurofins (KinaseProfiler)

In test [6] the target is T6, MST2(h) (Homo sapiens, UniProt Q13188).
T6 construct: purchased Eurofins (KinaseProfiler)
T6 sequence (Q13188 1-491): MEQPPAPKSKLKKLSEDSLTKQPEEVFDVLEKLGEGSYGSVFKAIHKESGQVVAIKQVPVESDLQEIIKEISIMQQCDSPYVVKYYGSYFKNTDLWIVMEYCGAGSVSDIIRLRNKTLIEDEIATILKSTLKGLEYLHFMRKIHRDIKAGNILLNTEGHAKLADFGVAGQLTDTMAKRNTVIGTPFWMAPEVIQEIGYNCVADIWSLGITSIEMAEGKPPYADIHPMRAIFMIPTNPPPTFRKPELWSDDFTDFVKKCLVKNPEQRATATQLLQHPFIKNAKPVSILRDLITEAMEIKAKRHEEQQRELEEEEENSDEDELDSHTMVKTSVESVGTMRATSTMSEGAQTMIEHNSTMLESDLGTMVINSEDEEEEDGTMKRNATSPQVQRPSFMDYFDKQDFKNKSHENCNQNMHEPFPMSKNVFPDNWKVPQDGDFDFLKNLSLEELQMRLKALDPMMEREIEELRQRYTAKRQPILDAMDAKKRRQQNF

Broadly, the inhibition is the drop in the measured response relative to a control, in per cent.

T5 sequence (P42345 1362-2549 limits assumed): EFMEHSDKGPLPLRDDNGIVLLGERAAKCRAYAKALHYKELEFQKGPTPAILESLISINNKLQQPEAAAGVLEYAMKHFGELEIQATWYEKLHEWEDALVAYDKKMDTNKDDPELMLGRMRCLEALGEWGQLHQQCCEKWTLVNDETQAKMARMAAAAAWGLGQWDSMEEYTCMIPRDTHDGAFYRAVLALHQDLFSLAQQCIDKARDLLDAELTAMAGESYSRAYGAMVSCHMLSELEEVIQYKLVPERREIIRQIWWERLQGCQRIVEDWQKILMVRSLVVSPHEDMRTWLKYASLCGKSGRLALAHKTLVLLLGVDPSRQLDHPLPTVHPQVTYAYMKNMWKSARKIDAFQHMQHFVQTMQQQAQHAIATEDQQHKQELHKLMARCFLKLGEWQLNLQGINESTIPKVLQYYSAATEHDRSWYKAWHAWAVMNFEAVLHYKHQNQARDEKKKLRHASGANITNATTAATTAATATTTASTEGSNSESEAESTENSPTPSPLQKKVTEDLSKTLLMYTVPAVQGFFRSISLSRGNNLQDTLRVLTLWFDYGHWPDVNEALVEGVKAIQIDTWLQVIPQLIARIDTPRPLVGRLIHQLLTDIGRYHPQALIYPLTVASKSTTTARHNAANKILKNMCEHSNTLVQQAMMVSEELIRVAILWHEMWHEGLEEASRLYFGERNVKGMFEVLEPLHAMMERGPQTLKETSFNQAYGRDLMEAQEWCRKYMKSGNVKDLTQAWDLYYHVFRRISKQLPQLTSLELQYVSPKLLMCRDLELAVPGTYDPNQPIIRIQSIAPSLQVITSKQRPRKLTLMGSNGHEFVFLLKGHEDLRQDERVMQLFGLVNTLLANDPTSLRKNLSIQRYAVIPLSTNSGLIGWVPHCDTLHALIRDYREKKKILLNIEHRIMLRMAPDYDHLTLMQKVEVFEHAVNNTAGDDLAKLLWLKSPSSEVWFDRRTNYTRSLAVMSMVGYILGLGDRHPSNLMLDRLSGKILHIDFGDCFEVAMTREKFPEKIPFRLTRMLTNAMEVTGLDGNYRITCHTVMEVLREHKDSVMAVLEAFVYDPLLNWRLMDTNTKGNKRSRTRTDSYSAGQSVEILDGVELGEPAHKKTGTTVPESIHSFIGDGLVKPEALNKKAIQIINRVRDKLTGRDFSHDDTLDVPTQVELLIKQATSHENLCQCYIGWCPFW

For the compound `COc1cc(OC)c(Cl)c(-c2ccc3c(NC(=O)c4ccc(N5CCNC(C)(C)C5)cc4)n[nH]c3n2)c1Cl` [3D185], the inhibition at 0.01 µM was -1% in test [1] (10 nM); -5% in test [2] (10 nM); 34% in test [3] (10 nM); -1% in test [4] (10 nM); 1% in test [5] (10 nM); 16% in test [6] (10 nM). Further, the inhibition at 0.1 µM in test [1] (100 nM) was -2%; in test [2] (100 nM), -11%; in test [3] (100 nM), 85%; in test [4] (100 nM) it was -1%; in test [5] (100 nM), 0%; in test [6] (100 nM), 41%. Besides, the inhibition at 1 µM in test [1] (1000 nM) was 1%; in test [2] (1000 nM), -1%; in test [3] (1000 nM), 97%; in test [4] (1000 nM) it was 12%; in test [5] (1000 nM), 2%; in test [6] (1000 nM), 65%.

The values above are taken from publication PMC6704710, “Preclinical evaluation of 3D185, a novel potent inhibitor of FGFR1/2/3 and CSF-1R, in FGFR-dependent and macrophage-dominant cancer models” (Journal of Experimental & Clinical Cancer Research : CR, 2019).
